Data published in patent US9718770B2, “Substituted thioureas as heat shock protein 70 inhibitors” (Institute of Pharmacology and Toxicology Academy of …, priority 2013, dated 2017).

What was measured:
BT474 = assay: CDI of example compounds and Lapatinib (ATPlite cell survival); type: cell-based; design: key: CDI = AB/(A×B); <1 synergistic; settings: compound 5 μM + Lapatinib 1 μM, 72 h; Lapatinib-sensitive human breast cancer cells; CDI<1 synergistic, <0.7 very significant, >1 antagonistic
Procedure: (§1) Cells: (BT474 and SK-BR3 are Lapatinib-sensitive human breast cancer cell strains; BT/LapR and SK/LapR are secondary Lapatinib-resistant human breast cancer cell strains upon Lapatinib stimulation; MDA-MB-361 and MDA-MB-453 are natural Lapatinib-resistant human breast cancer cell strains. BT474, MDA-MB-361, SK-BR3 and MDA-MB-453 are from American Type Culture Collection (ATCC))
(§2) In a 100 mm culture dish full of adherent cells, digestion with 1 ml 0.25% pancreatin (GIBCO) was carried out at 37° C. for 5 min, and the reaction was stopped with 2 ml medium (containing 10% FBS, GIBCO). The cells were dispersed and collected. After cell count, the cells were diluted to a concentration of 1×10^5 cells/ml, and were seeded to a 96-well plate at 50 μl/well, 5000 cell/well, 60 wells in total, PBS instead of cells was added to the wells of the outmost circle, and the incubation was carried out at 37° C. for 24 h for adherence.
(§3) For the sample group, samples to be tested were diluted with DMSO to a final concentration of 5 μM; to control wells, the medium containing the same concentration of solvent corresponding to the compound was added, the concentrations of the compounds were identical in each well, 5 wells in parallel were set for each concentration, 25 μL/well, and 25 μL medium was added to each well (for the combination group, 25 μL Lapatinib was added to reach a final concentration of 1 μM). The incubation was carried out at 37° C. for 72 h.
(§4) To each well, 50 μL ATPlite kit substrate solution was added. The plate was under shaking for 3 min, and was then placed in dark for 10 min. The lysis supernatant was drawn at 100 μL/well, and placed in a luminescent plate. The incubated luminescent plate was placed in an iluminescence apparatus, and the iluminescent value was read.
(§5) Data Processing Cell survival rate (%)=Experimental group RLU/control group RLU×100%
(§6) Coefficient of drug interaction (CDI) is used to evaluate the interaction of two drugs, CDI is calculated in accordance with the following formula: CDI=AB/(A×B)×100%. The calculation is performed according to the number of live cells (luminescent value), if CDI<1, the two drugs have a synergistic effect; if CDI<0.7, the synergistic effect is very significant; if CDI=1, the effect of the two drugs in combination is the sum of the effects of the two drugs; if CDI>1, the two drugs have an antagonistic effect.

MDA-MB-361 = assay: as above; type: cell-based; design: key: CDI = AB/(A×B); <1 synergistic; settings: compound 5 μM + Lapatinib 1 μM, 72 h; natural Lapatinib-resistant human breast cancer cells; CDI<1 synergistic
Procedure: as §1, §2, §3, §4, §5, §6

MDA-MB-453 = assay: as above; type: cell-based; design: key: CDI = AB/(A×B); <1 synergistic; settings: compound 5 μM + Lapatinib 1 μM, 72 h; natural Lapatinib-resistant human breast cancer cells; CDI<1 synergistic
Procedure: as §1, §2, §3, §4, §5, §6

SK-BR3 = assay: as above; type: cell-based; design: key: CDI = AB/(A×B); <1 synergistic; settings: compound 5 μM + Lapatinib 1 μM, 72 h; Lapatinib-sensitive human breast cancer cells; CDI<1 synergistic
Procedure: as §1, §2, §3, §4, §5, §6

BT/Lap^R1.0 = assay: as above; type: cell-based; settings: compound 5 μM + Lapatinib 1 μM, 72 h; secondary Lapatinib-resistant human breast cancer cells; CDI<1 synergistic
Procedure: as §1, §2, §3, §4, §5, §6

SK/Lap^R1.0 = assay: as above; type: cell-based; settings: compound 5 μM + Lapatinib 1 μM, 72 h; secondary Lapatinib-resistant human breast cancer cells; CDI<1 synergistic
Procedure: as §1, §2, §3, §4, §5, §6

Hsp70 ATPase = target: T1, Hsp70 ATPase (Homo sapiens, UniProt P0DMV8); assay: Inhibition of Hsp70 ATPase activity (malachite green); type: biochemical; settings: for inhibition at 200 µM / Inhibitory rate (%) on activity of Hsp70 ATPase: repeated screening carried out twice, Hsp70/Hsp40, 1 mM ATP; for inhibition at 200 µM: read-out: Inhibitory rate (%) on activity of Hsp70 ATPase; for inhibition at 200 µM / Inhibitory rate (%) on activity of Hsp70 ATPase / inhibitory rate of Hsp70 ATPase activity: 200 μM; for dose-response relationship with respect to inhibition of Hsp70 ATPase activity: first preliminary screening, 200, 100, 50, 25 and 12.5 μM with Hsp70/Hsp40, FIGS. 1, 2; for inhibitory rate of Hsp70 ATPase activity: preliminary screening, after incubation for 30 min
T1 construct: made in house; host or cells: E. coli
Procedure: (1) Protein: Humanized Hsp70, Hsp40, expressed by E. coli.
(2) Sample to be tested: 26 compound solids with different colors and states. Positive drugs AZ (CAS:1054543-47-3) and VER 155008 (CAS: 1134156-31-2) were synthesized in the laboratory.
(4) ATPase Assay buffer: • 0.017% Triton X-100; • 100 mM Tris-HCl; • 20 mM KCl; • 6 mM MgCl2, pH 7.4.
1) 13.08 μl DnaK (0.15 mg/mL, 2.14 μM), 1.96 μl DnaJ (1 mg/mL, 25 μM) were dissolved in 7.96 μl Assay Buffer (0.017% Triton X-100, 100 mM Tris-HCl, 20 mM KCl, and 6 mM MgCl2, pH 7.4), and the resultant solution was added to each well of the 96 well plate;
2) to each well of the 96 well plate, 1 μL sample to be tested (5 mM) or DMSO (solvent) was added, and vortexed with a Vortex agitator for 10 min; and then standing at 37° C. for 30 min;
3) to each well, 1 μL 25 mM ATP was added, to trigger the enzymatic reaction; (in each well, the final reaction volume was 25 μL, the final concentration of DnaK was 1.12 μM, the final concentration of DnaJ was 1.96 μM, the final concentration of DMSO was 4%, the final concentration of Triton X-100 was 0.01%, the final concentration of ATP was 1 mM, and the final concentration of sample to be tested was 200 μM), the enzymatic reaction was carried out at 37° C. for 3 h;
4) 80 μL Malachite green staining solution was then added to each well, and was vortexed gently;
5) 10 μL of 34% citrate sodium was then added immediately, and vortexed gently, to stop the ATP hydrolysis not caused by ATPase;
6) the resultant mixture was mixed thoroughly at 37° C. for 15 min, and OD620 was measured.
The inhibitory rate of Hsp70 ATPase activity is calculated in accordance with the following formula: Inhibitory rate (%)=(DMSO well OD−Experimental well OD)/(DMSO well OD−Blank well OD)×100
Criteria for preliminary screening: during preliminary screening, an example compound is regarded as effective in inhibition as long as its inhibitory rate is above 20% for Hsp70 ATPase at 200 μM.

T1 sequence (P0DMV8 2-641 limits assumed): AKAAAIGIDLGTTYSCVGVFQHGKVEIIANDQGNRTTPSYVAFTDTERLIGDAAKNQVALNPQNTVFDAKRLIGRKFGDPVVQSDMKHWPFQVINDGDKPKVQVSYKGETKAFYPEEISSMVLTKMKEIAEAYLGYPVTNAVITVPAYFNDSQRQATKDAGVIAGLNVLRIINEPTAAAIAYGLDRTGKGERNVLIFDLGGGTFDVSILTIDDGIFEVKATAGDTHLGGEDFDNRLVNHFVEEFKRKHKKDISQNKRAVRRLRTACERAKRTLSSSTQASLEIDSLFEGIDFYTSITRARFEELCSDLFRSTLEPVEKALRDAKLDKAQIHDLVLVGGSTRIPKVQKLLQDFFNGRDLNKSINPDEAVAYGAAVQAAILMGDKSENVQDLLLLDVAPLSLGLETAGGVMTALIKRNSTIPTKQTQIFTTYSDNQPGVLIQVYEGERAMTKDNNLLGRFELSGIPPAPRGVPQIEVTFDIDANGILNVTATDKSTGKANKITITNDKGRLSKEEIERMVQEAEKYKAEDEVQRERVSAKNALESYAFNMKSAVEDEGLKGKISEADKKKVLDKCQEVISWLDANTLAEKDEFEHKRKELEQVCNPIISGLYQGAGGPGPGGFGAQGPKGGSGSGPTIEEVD

SMILES: COc1cc(/C=C/C(=O)NC(NC(=S)Nc2ccccn2)C2CC2)cc(OC)c1OC (stereo not shown) [Example 30, (2E)-N-[cyclopropyl-(3-pyridin-2-ylthioureido)-methyl]-3-(3,4,5-trimethoxyphenyl) acrylamide]
- CDI of example compounds and Lapatinib, BT474 (BT474): 0.94
- CDI of example compounds and Lapatinib, MDA-MB-361 (MDA-MB-361): 0.85
- CDI of example compounds and Lapatinib, MDA-MB-453 (MDA-MB-453): 1.28
- CDI of example compounds and Lapatinib, SK-BR3 (SK-BR3): 0.94
- CDI of example compounds and Lapatinib, BT/Lap^R1.0 (BT/Lap^R1.0): 0.93
- CDI of example compounds and Lapatinib, SK/Lap^R1.0 (SK/Lap^R1.0): 0.82
- inhibition at 200 µM (Hsp70 ATPase): -5.66%

SMILES: CNC(=S)NC(CC(C)C)NC(=O)/C=C/c1cc(OC)c(OC)c(OC)c1 (stereo not shown) [Example 43, (2E)-N-[3-methyl-1-(3-methylthioureido)butyl]-3-(3,4,5-trimethoxyphenyl) acrylamide]
- CDI of example compounds and Lapatinib, BT474 (BT474): 1.03
- CDI of example compounds and Lapatinib, MDA-MB-361 (MDA-MB-361): 0.95
- CDI of example compounds and Lapatinib, MDA-MB-453 (MDA-MB-453): 1.28
- CDI of example compounds and Lapatinib, SK-BR3 (SK-BR3): 1
- CDI of example compounds and Lapatinib, BT/Lap^R1.0 (BT/Lap^R1.0): 1
- CDI of example compounds and Lapatinib, SK/Lap^R1.0 (SK/Lap^R1.0): 0.93
- inhibition at 200 µM (Hsp70 ATPase): 7.62%

SMILES: Cc1ccccc1NC(=S)NC(CC(C)(C)C)NC(=O)/C=C/c1ccccc1 (stereo not shown) [Example 46, N-[3,3-dimethyl-1-(3-o-methylphenylthioureido)butyl] cinnamamide]
- CDI of example compounds and Lapatinib, BT474 (BT474): 0.74
- CDI of example compounds and Lapatinib, MDA-MB-361 (MDA-MB-361): 0.94
- CDI of example compounds and Lapatinib, MDA-MB-453 (MDA-MB-453): 1.64
- CDI of example compounds and Lapatinib, SK-BR3 (SK-BR3): 1.29
- CDI of example compounds and Lapatinib, BT/Lap^R1.0 (BT/Lap^R1.0): 0.79
- CDI of example compounds and Lapatinib, SK/Lap^R1.0 (SK/Lap^R1.0): 1.25
- inhibition at 200 µM (Hsp70 ATPase): 41%

SMILES: COc1cc(/C=C/C(=O)NC(NC(=S)Nc2cccnc2)C2CC2)cc(OC)c1OC (stereo not shown) [Example 29, (2E)-N-[cyclopropyl-(3-pyridin-3-ylthioureido)-methyl]-3-(3,4,5-trimethoxyphenyl) acrylamide]
- CDI of example compounds and Lapatinib, BT474 (BT474): 1.05
- CDI of example compounds and Lapatinib, MDA-MB-361 (MDA-MB-361): 1
- CDI of example compounds and Lapatinib, MDA-MB-453 (MDA-MB-453): 1.05
- CDI of example compounds and Lapatinib, SK-BR3 (SK-BR3): 0.98
- CDI of example compounds and Lapatinib, BT/Lap^R1.0 (BT/Lap^R1.0): 0.99
- CDI of example compounds and Lapatinib, SK/Lap^R1.0 (SK/Lap^R1.0): 1.26
- inhibition at 200 µM (Hsp70 ATPase): 2.55%

SMILES: COc1cc(/C=C/C(=O)NC(CC(C)(C)C)NC(=S)Nc2ccccn2)cc(OC)c1OC (stereo not shown) [Example 34, (2E)-N-[3,3-dimethyl-1-(3-pyridin-2-ylthioureido)butyl]-3-(3,4,5-trimethoxyphenyl) acrylamide]
- CDI of example compounds and Lapatinib, BT474 (BT474): 0.98
- CDI of example compounds and Lapatinib, MDA-MB-361 (MDA-MB-361): 0.87
- CDI of example compounds and Lapatinib, MDA-MB-453 (MDA-MB-453): 1.41
- CDI of example compounds and Lapatinib, SK-BR3 (SK-BR3): 0.98
- CDI of example compounds and Lapatinib, BT/Lap^R1.0 (BT/Lap^R1.0): 1
- CDI of example compounds and Lapatinib, SK/Lap^R1.0 (SK/Lap^R1.0): 0.85
- inhibition at 200 µM (Hsp70 ATPase): 9.36%

SMILES: CC(C)(C)C(NC(=O)/C=C/c1ccccc1)NC(=S)NC1CCCCC1 (stereo not shown) [Example 56, N-[1-(3-cyclohexylthioureido)-2,2-dimethylpropyl] cinnamamide]
- CDI of example compounds and Lapatinib, BT474 (BT474): 0.77
- CDI of example compounds and Lapatinib, MDA-MB-361 (MDA-MB-361): 0.96
- CDI of example compounds and Lapatinib, MDA-MB-453 (MDA-MB-453): 1.32
- CDI of example compounds and Lapatinib, SK-BR3 (SK-BR3): 1.19
- CDI of example compounds and Lapatinib, BT/Lap^R1.0 (BT/Lap^R1.0): 1.21
- CDI of example compounds and Lapatinib, SK/Lap^R1.0 (SK/Lap^R1.0): 1
- inhibition at 200 µM (Hsp70 ATPase): 21.4%

SMILES: COc1cc(/C=C/C(=O)NC(CC(C)C)NC(=S)Nc2cccnc2)cc(OC)c1OC (stereo not shown) [Example 25, (2E)-N-[3-methyl-1-(3-pyridin-3-ylthioureido)butyl]-3-(3,4,5-trimethoxyphenyl) acrylamide]
- CDI of example compounds and Lapatinib, BT474 (BT474): 0.94
- CDI of example compounds and Lapatinib, MDA-MB-361 (MDA-MB-361): 0.93
- CDI of example compounds and Lapatinib, MDA-MB-453 (MDA-MB-453): 1.2
- CDI of example compounds and Lapatinib, SK-BR3 (SK-BR3): 1.04
- CDI of example compounds and Lapatinib, BT/Lap^R1.0 (BT/Lap^R1.0): 0.97
- CDI of example compounds and Lapatinib, SK/Lap^R1.0 (SK/Lap^R1.0): 0.93
- inhibition at 200 µM (Hsp70 ATPase): 38.5%

SMILES: COc1ccc(-c2nc(-c3cc(C(F)(F)F)cc(C(F)(F)F)c3)n(Cc3ccc(C(N)=O)cc3)c2-c2ccc(OC)cc2)cc1 [AZ, reference compound]
- Inhibitory rate (%) on activity of Hsp70 ATPase (Hsp70 ATPase): 53.04%
- dose-response relationship with respect to inhibition of Hsp70 ATPase activity (Hsp70 ATPase): dose-response relationship
- inhibitory rate of Hsp70 ATPase activity (Hsp70 ATPase): 53.13%

SMILES: COc1cc(/C=C/C(=O)NC(NC(=S)Nc2ccccc2)C(C)C)cc(OC)c1OC (stereo not shown) [Example 36, (2E)-N-[2-methyl-1-(3-phenylthioureido)propyl]-3-(3,4,5-trimethoxyphenyl) acrylamide]
- CDI of example compounds and Lapatinib, BT474 (BT474): 0.97
- CDI of example compounds and Lapatinib, MDA-MB-361 (MDA-MB-361): 0.98
- CDI of example compounds and Lapatinib, MDA-MB-453 (MDA-MB-453): 1.3
- CDI of example compounds and Lapatinib, SK-BR3 (SK-BR3): 1.07
- CDI of example compounds and Lapatinib, BT/Lap^R1.0 (BT/Lap^R1.0): 0.96
- CDI of example compounds and Lapatinib, SK/Lap^R1.0 (SK/Lap^R1.0): 0.94

SMILES: N#Cc1ccc(COC[C@H]2O[C@@H](n3c(NCc4ccc(Cl)c(Cl)c4)nc4c(N)ncnc43)[C@H](O)[C@@H]2O)cc1 [VER155008, reference compound]
- Inhibitory rate (%) on activity of Hsp70 ATPase (Hsp70 ATPase): 43.03%
- dose-response relationship with respect to inhibition of Hsp70 ATPase activity (Hsp70 ATPase): dose-response relationship
- inhibitory rate of Hsp70 ATPase activity (Hsp70 ATPase): 38.18%
